# From US8088819B2, “Derivatives of substituted 3-phenyl-1-(phenylthienyl)propan-1-ones and of 3-phenyl-1-(phenylfuranyl) propan-1-ones, preparation and use” (priority 2006, dated 2012)
# Tests used:
# [1] = tested on: target genes of the PPARs; assay: Expression of PPARδ target genes in skeletal muscle of the C57Bl6 mouse (compounds 4 and 7), quantitative RT-PCR; assay type: in vivo; conditions: C57Bl6 mice; 50 mpk; 14 days
# Excerpt: The PPARδ agonistic properties of the molecules according to the invention previously measured in vitro should be reflected at the level of the skeletal muscle in overexpression of the target genes directly under the control of the PPARδ receptor: the genes that were investigated in this experiment are the genes coding for PDK4 (enzyme of carbohydrate metabolism), CPT1b (enzyme of lipid metabolism), UCP2 and UCP3 (mitochondrial transporters involved in thermoregulation).
# Female C57Bl6 mice were kept under a cycle of light and darkness of 12/12 hours at a constant temperature of 20±3° C. After acclimation for one week, the mice were weighed and put into groups of 6 animals selected so that the distribution of their body weight, of their plasma lipid levels and of total cholesterol determined for the first time before the experiment, is uniform. The test compounds were suspended in carboxymethylcellulose (Sigma C4888) and administered by intragastric force feeding, at a rate of once per day for 14 days at the chosen dose. The animals had free access to water and to food (standard diet). At the end of the experiment, the animals were anesthetized after fasting for 4 hours, a blood sample was taken using anticoagulant (EDTA), then the mice were weighed and euthanased. The plasma was separated by centrifugation at 3000 rev/min for 20 minutes, and the samples were stored at +4° C.
# Samples of skeletal muscle tissue were taken and frozen immediately in liquid nitrogen and then stored at −80° C. for later analyses.
# The total RNA was extracted from fragments of gastrocnemius skeletal muscle using the RNeasy® Fibrous Tissue kit (Qiagen) following the manufacturer's instructions.
# 1 μg of total RNA (quantified based on the spectrophotometer reading) was then reverse-transcribed to complementary DNA by reaction for 1 hour at 37° C. in a total volume of 30 μl containing buffer 1× (Invitrogen), 1.5 mM of DTT, 0.18 mM of dNTPs (Promega), 200 ng of pdN6 (Amersham), 30 U of RNase inhibitor (Promega) and 1 μl of MMLV-RT (Invitrogen).
# The quantitative PCR experiments were carried out using the MyiQ Single-Color Real-Time PCR Detection System (Biorad, Marnes-la-Coquette, France) and were performed using the iQ SYBR Green Supermix kit following the supplier's recommendations, in 96-well plates, on 5 μl of diluted reverse transcription reaction mixture with a hybridization temperature of 60° C. Primer pairs specific to the genes under investigation were used:
# The amount of fluorescence emitted is directly proportional to the amount of complementary DNA present at the start of the reaction and amplified during PCR. For each target investigated, a range is produced by successive dilutions of a pool constituted of a few microliters of various reverse transcription reaction mixtures. The relative expression levels of each target are thus determined using the efficacy curves obtained with the points in the range.
# The levels of expression of the genes of interest were then normalized relative to the level of expression of the reference gene 18S (whose specific primers are: […]
# The induction factor, i.e. the ratio of the relative signal (induced by the compound according to the invention) to the mean of the relative values of the control group, was then calculated for each sample. The higher this factor, the greater the gene expression activating character of the compound. The final result is represented as the mean of the induction values in each experimental group.
# hPPARalpha = target: T1, hPPARalpha (Homo sapiens, UniProt Q07869); assay: PPAR activation: Gal4-hPPARα chimera luciferase transactivation in COS-7 cells, Method 1; assay type: cell-based; conditions: COS-7, 24 h; for Emax: maximum percentage response relative to the reference phenofibric acid, read-out: hPPARalpha % max
# T1 construct: expressed in transfected cells; host or cells: COS-7 (monkey kidney fibroblasts)
# T1 sequence (Q07869 239-466 limits assumed): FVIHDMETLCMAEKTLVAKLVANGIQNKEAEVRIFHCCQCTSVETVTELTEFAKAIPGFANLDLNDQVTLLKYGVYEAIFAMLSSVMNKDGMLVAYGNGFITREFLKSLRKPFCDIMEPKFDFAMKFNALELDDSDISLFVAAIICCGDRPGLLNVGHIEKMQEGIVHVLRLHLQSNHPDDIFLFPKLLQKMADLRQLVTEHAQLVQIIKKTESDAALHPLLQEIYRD
# How it was run: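 COS-7 cells transiently transfected with Gal4 DBD–human PPAR LBD (DEF domain) chimeras plus Gal4(RE)_TkpGL3 luciferase reporter (1/10 ratio). Compounds applied 24 h at 37 °C in serum-free medium at doses between 10^−5 and […]; luciferase read after lysis, EC50 derived.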
SMILES,expression of the gene coding for CPT1b in skeletal muscle [1],expression of the gene coding for PDK4 in skeletal muscle [1],expression of the gene coding for UCP2 in skeletal muscle [1],expression of the gene coding for UCP3 in skeletal muscle [1],EC50 (hPPARalpha),Emax (hPPARalpha)
"CC(C)(Oc1ccc(CCC(OCc2ccccc2)c2ccc(-c3ccc(C(F)(F)F)cc3)s2)c(Cl)c1Cl)C(=O)O (centres unmarked) [Compound 7, 2-(4-(3-(benzyloxy)-3-(5-(4-(trifluoromethyl)phenyl)thien-2-yl)propyl)-2,3-dichlorophenoxy)-2-methylpropanoic acid]",significant increase,significant increase,significant increase,significant increase,,
"CC(C)(Oc1ccc(CCC(=O)c2ccc(-c3ccc(C(F)(F)F)cc3)s2)c(Cl)c1Cl)C(=O)O [Compound 2, 2-(2,3-dichloro-4-(3-oxo-3-(5-(4-(trifluoromethyl)phenyl)thien-2-yl)propyl)phenoxy)-2-methylpropanoic acid]",,,,,53 nM,43%
"CC(C)(Oc1ccc(CCC(=O)c2cc(-c3ccc(C(F)(F)F)cc3)cs2)c(Cl)c1Cl)C(=O)O [Compound 11, 2-(2,3-dichloro-4-(3-oxo-3-(4-(4-(trifluoromethyl)phenyl)thien-2-yl)propyl)phenoxy)-2-methylpropanoic acid]",,,,,288 nM,39%
"CC(C)(Oc1ccc(CCC(O)c2ccc(-c3ccc(C(F)(F)F)cc3)s2)c(Cl)c1Cl)C(=O)O (centres unmarked) [Compound 4, 2-(2,3-dichloro-4-(3-hydroxy-3-(5-(4-(trifluoromethyl)phenyl)thien-2-yl)propyl)phenoxy)-2-methylpropanoic acid]",significant increase,significant increase,significant increase,significant increase,125 nM,50%
